Experimental findings from patent publication US10703748B2, “Diazanaphthalen-3-yl carboxamides and preparation and use thereof” (Samumed, LLC, priority 2017, dated 2020) are described below.

Assay [1] deals with α-smooth muscle actin (aSMA) positive LL29 cells. Kind of assay: Inhibition of the fibrotic process: αSMA staining in TGF-β1 treated LL29 fibroblasts from IPF patients. To be noted: Homo sapiens, Fibroblast; for EC50: 96 h; for inhibition at 10 µM: read-out: percentage in parentheses after EC50 >10.
Assay [2] relates to Wnt-responsive Sp5-Luc reporter in SW480 colon carcinoma cells. Put plainly: Screening assay for Wnt activity (Sp5-Luc reporter gene assay). To be noted: Homo sapiens; for EC50: SW480; for inhibition at 10 µM: SW480, read-out: percent inhibition at 10 μM. (In general: In a reporter assay the amount or activity of a reporter protein is the signal.)
Another assay concerns IL-6. Put plainly: IL-6 inhibition in LPS-stimulated human peripheral blood mononuclear cells (HTRF). To be noted: Homo sapiens, PBMC; for EC50: 22 h; for inhibition at 10 µM: read-out: percentage in parentheses after EC50 >10. On the technique in general: Time-resolved FRET reads energy transfer from a long-lived donor to a nearby acceptor.
The next assay deals with DYRK1A kinase (Homo sapiens, UniProt Q13627). Kind of assay: DYRK1A kinase activity (Ser/Thr 18 peptide Z-lyte FRET assay).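 Also: kinase activity read as coumarin/fluorescein emission ratio after development step, with unphosphorylated and phosphorylated peptide forms setting 0% and 100% controls, values from dose-response curves.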 Type of assay: biochemical. To be noted: recombinant DYRK1A, 30 μM ATP, one hour at room temperature.
The test system of assay [3] is Tau phosphorylation at Ser396 (pSer396). Put plainly: Tau phosphorylation at Ser396 (pSer396) in SH-SY5Y cells, ELISA / western blot.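 Also: decrease in pSer396 Tau measured in lysates of treated cells by colorimetric ELISA or chemiluminescent western blot, same pSer396 antibody for both.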 Type of assay: cell-based, human. To be noted: Homo sapiens; SH-SY5Y cells, overnight (16-18 h); read-out: pSer396 Tau EC50. Background: An ELISA detects its analyte on a solid surface through an enzyme-linked reagent.
Description: Two days before treatment, cells were seeded onto 96 well plates at 5×10^4 cells/well.
The above synthesized compounds were screened using the cell assay procedure to assess decrease Tau phosphorylation at Ser396 (pSer396) described below.
Cells were lysed with RIPA buffer complemented with phosphatase and protease inhibitors then lysates were spun down at 12,000 g for 10 min to remove any cellular debris.
Assay [4] concerns SW480 colon carcinoma cells. Put plainly: Cell viability assay (CellTiter-Glo). The note with it: Homo sapiens; for EC50: SW480, 96 h; for inhibition at 10 µM: SW480, read-out: percent inhibition at 10 μM.
In assay [5] the test system is secreted cytokines TNFα, IL-6 and KC-GRO. Put plainly: Secreted cytokines in Lipopolysaccharide-stimulated BV-2 cells (Table 9 does not say which cytokine). In kind it is cell-based, mouse. To be noted: Mus musculus, BV-2, 5 h; read-out: EC50.
Assay [6] concerns Tau phosphorylation at Threonine 212 (pT212Tau). Put plainly: Tau phosphorylation at Threonine 212 (pT212Tau) in Dyrk1a- and MAPT-overexpressing HEK293T cells, sandwich ELISA. In kind it is cell-based. To be noted: Homo sapiens, HEK-293T, overnight (16-18 hours), read-out: Thr212 EC50. As for the experimental part:
HEK293T cells (transfectable human embryonic kidney cells) were cultured in DMEM medium supplemented with 10% FBS and 1% penicillin/streptomycin.
HEK293T cells were transiently transfected to overexpress Dyrk1a and microtubule-associated protein Tau (MAPT) genes. Specifically, Dyrk1a and MAPT expression vectors were obtained from OriGene (10 μg of each, catalog numbers SC314641 and RC216166, respectively). A MaxiPrep for each vector was ordered and received from GeneWiz, yielding 874.5 μg (resuspended at […]) of the Dyrk1a expression vector, and 898 μg (resuspended at […]) of MAPT.
HEK293T cells were seeded at 1.0×10^7 cells in 10 mL per T-75 flask. […] One T-75 flask was designated as a no-vector negative control for pT212Tau signal.
After 4-6 hours of incubation in transfection reagents, transiently double transfected HEK293T cells were dissociated by treatment with trypsin EDTA and seeded at 1.0×10^5 cells in 100 μL per well in 96-well plates. No-vector negative controls were seeded in separate 96-well plates to avoid the risk of the negative control cells picking up the overexpression during incubation. At the time of seeding, DMSO-resuspended Samumed compounds were dispensed to eight wells as a serial dilution from 10 μM to 4.6 nM final concentration in medium, or at 0.12 μM to 0.05 nM with particularly potent compounds. Cells were exposed to the representative compounds overnight (16-18 hours) in a 37° C. incubator.
96-Well flat-bottom plates were coated with 100 μL per well anti-HT7 capture antibody (ThermoFisher, MN1000) diluted 1:300 in 1×PBS at 4° C. overnight, with shaking at 500 rpm. After overnight capture antibody incubation, coated plates were washed four times with 200 μL per well of 1×PBS-0.05% Tween-20, and blocked for 1 hour with 200 μL per well of 1×PBS with 2% BSA. After 1 hour of blocking, plates were washed four times with 200 μL per well of 1×PBS-0.05% Tween-20, prior to sample loading.
Wells of compound-treated cells were visually checked for cell death before being washed with 200 μL per well of 1×DPBS supplemented with phosphatase inhibitor diluted to 1×. Cells were then lysed with 100 μL 1×RIPA buffer supplemented with phosphatase and protease inhibitors (each diluted to a final 1×). Cells were shaken at 500 rpm, 4° C. for 20 minutes prior to further lysis (via manual scraping) and transfer to 96-well V-bottom collection plates (Corning, 3894). V-bottom plates were centrifuged at 4000 rpm, 4° C., for 15 minutes, and 100 μL of lysate supernatant from each well was directly tested for pT212Tau signal by sandwich ELISA.
Specifically, lysates were directly transferred to the coated and blocked ELISA plates for 2 hours before plates were washed four times with 200 μL per well of 1×PBS-0.05% Tween-20 and probed with 100 μL per well of anti-pT212Tau antibody (ThermoFisher, 44-740G) diluted 1:200 in 1×PBS for 2 hours. Plates were washed four times with 200 μL per well of 1×PBS-0.05% Tween-20 and probed with 100 μL per well of anti-rabbit/HRP conjugate (Cell Signaling Technology, 7074S) diluted 1:600 in 1×PBS for 1 hour. Plates were washed four times with 200 μL per well of 1×PBS-0.05% Tween-20 before 100 μL per well of TMB substrate solution (ThermoFisher, N301) was added. When colour development was observed, 100 μL per well of stop solution (ThermoFisher, N600) was added, and colorimetric detection of pT212Tau signal was read at 450 nm with the Cytation 3 Cell Imaging Multi-Mode Reader (BioTek). The signal was used to plot, draw the curves fitting, and determine the EC50 values in GraphPad Prism for tested representative compounds.

Another assay addresses GSK3β kinase (Homo sapiens, UniProt P49841). Kind of assay: GSK3β kinase activity (Ser/Thr 09 peptide Z-lyte FRET assay). Type of assay: biochemical. To be noted: recombinant kinase, 46 μM ATP, one hour at room temperature; read-out: EC50.

Sequence of GSK3β kinase (P49841 whole entry): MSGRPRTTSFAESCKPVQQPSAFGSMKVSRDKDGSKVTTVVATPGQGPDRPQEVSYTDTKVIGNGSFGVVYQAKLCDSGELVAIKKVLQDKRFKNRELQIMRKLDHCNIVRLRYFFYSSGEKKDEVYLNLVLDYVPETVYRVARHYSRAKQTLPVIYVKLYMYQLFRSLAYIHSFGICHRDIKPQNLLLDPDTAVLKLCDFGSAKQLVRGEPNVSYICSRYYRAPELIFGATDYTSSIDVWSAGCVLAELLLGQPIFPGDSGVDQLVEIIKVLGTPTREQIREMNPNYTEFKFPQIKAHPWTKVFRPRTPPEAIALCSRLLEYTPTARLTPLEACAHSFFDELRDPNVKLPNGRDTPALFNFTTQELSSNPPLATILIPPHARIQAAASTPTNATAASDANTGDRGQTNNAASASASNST

In the case of `C[C@H]1CCCN1CC(=O)Nc1cc2nc(-c3cnn(C)c3)ccc2cn1` [Compound 47, (S)—N-(2-(1-methyl-1H-pyrazol-4-yl)-1,6-naphthyridin-7-yl)-2-(2-methylpyrrolidin-1-yl)acetamide], the EC50 (commonly the concentration at which the effect is half-maximal) in assay [1] is 7.2 µM; in assay [2], 5.21 µM; in the assay on IL-6 it was more than 10 µM; at DYRK1A kinase, 0.036 µM; in assay [3], more than 10 µM; in [4], more than 10 µM. The EC50 came to 0.26 µM in [5], 0.668 µM in [6] and 0.2 µM at GSK3β kinase. The results for the inhibition at 10 µM (with IL-6; in [4]) were 0% and 35.2%, respectively.
As to `Cn1cc(-c2ccc3nnc(NC(=O)C4CC4)cc3c2)cn1` [Compound 1815, N-(6-(1-Methyl-1H-pyrazol-4-yl)cinnolin-3-yl)cyclopropanecarboxamide], the EC50 (in [1]; in assay [2]; in the assay on IL-6; on DYRK1A kinase; in assay [3]; in assay [4]) was more than 10 µM throughout. In addition, the EC50 (in assay [6]; at GSK3β kinase) was more than 10 µM in each case. Besides, the inhibition at 10 µM in assay [1] came out at 33.5%; in assay [2] it was 12.9%; in the assay on IL-6, 7%; in assay [4], 15.8%.
`CN1CCN(c2cccc(C(=O)Nc3cc4cc(-c5cnn(C)c5)ccc4nn3)c2)CC1` [Compound 1953, N-(6-(1-Methyl-1H-pyrazol-4-yl)cinnolin-3-yl)-3-(4-methylpiperazin-1-yl) benzamide]: the EC50 in [1] was more than 10 µM; in assay [2] it was more than 10 µM; in the assay on IL-6, more than 10 µM; at DYRK1A kinase it was 0.317 µM; in [3] it was more than 10 µM; in assay [4], more than 10 µM. In addition, the results for the concentration for a half-maximal effect (EC50) (in assay [5]; in [6]; at GSK3β kinase) were 2.9 µM, more than 10 µM and 2.62 µM, respectively. In addition, the inhibition at 10 µM in assay [1] turned out to be 55.5%; in assay [2], 9.7%; in the assay on IL-6 it was 12.8%; in [4], 7.8%.
As for `Cn1cc(-c2cnc3cnc(NC(=O)c4ccc(OC5CCNCC5)cc4)cc3c2)cn1` [Compound 2864, N-(3-(1-Methyl-1H-pyrazol-4-yl)-1,7-naphthyridin-6-yl)-4-(piperidin-4-yloxy)benzamide], the EC50 in assay [1] was more than 10 µM; in assay [2], more than 10 µM; in the assay with IL-6 it was more than 10 µM; at DYRK1A kinase, 0.039 µM; in assay [3], more than 10 µM; in assay [4], 4.06 µM. The EC50 in assay [6] was 0.31 µM; on GSK3β kinase it was more than 10 µM. The values for the inhibition at 10 µM (in [1]; in assay [2]; in the assay on IL-6) were 7.3%, 47.3% and 10%, respectively.
As to `CN1CCC(Oc2ccc(C(=O)Nc3cc4cc(-c5cnn(C)c5)cnc4cn3)cc2)CC1` [Compound 2865, N-(3-(1-Methyl-1H-pyrazol-4-yl)-1,7-naphthyridin-6-yl)-4-((1-methylpiperidin-4-yl)oxy)benzamide], the half-maximal effective concentration (EC50) was 5.12 µM in [1]; 3.02 µM in [2]; 9.61 µM in the assay on IL-6; 0.041 µM at DYRK1A kinase; more than 10 µM in assay [3]; 4.38 µM in assay [4]. Further, the concentration giving a half-maximal response (EC50) in [5] is 0.16 µM; in assay [6], 0.122 µM; on GSK3β kinase it was more than 10 µM.
In the case of `Cn1cc(-c2cnc3cnc(NC(=O)c4ccnc(N5CCNCC5)c4)cc3c2)cn1` [Compound 2866, N-(3-(1-Methyl-1H-pyrazol-4-yl)-1,7-naphthyridin-6-yl)-2-(piperazin-1-yl) isonicotinamide], the half-maximal effective concentration (EC50) in assay [1] is more than 10 µM; in [2], 2.2 µM; in the assay on IL-6 it was more than 10 µM; at DYRK1A kinase, 0.041 µM; in assay [3] it was more than 10 µM; in assay [4], 2.48 µM. Further, the EC50 in [6] is 1.6 µM; on GSK3β kinase, more than 10 µM. Moreover, the values for the inhibition at 10 µM (in [1]; with IL-6) were 47.4% and 0%, respectively.
Regarding `CN1CCN(c2cc(C(=O)Nc3cc4cc(-c5cnn(C)c5)cnc4cn3)ccn2)CC1` [Compound 2867, N-(3-(1-methyl-1H-pyrazol-4-yl)-1,7-naphthyridin-6-yl)-2-(4-methylpiperazin-1-yl)isonicotinamide], the EC50 was 5.38 µM in [1]; 9.16 µM in assay [2]; more than 10 µM in the assay on IL-6; 0.036 µM on DYRK1A kinase; more than 10 µM in [3]; 4.05 µM in assay [4]. The half-maximal effective concentration (EC50) in assay [6] was 0.046 µM; on GSK3β kinase, more than 10 µM. Besides, in the assay with IL-6, the inhibition at 10 µM was determined as 5.2%.
`CN1CCN(c2cc(C(=O)Nc3cc4cc(-c5cn(C)nn5)cnc4cn3)ccn2)CC1` [Compound 3098, N-(3-(1-Methyl-1H-1,2,3-triazol-4-yl)-1,7-naphthyridin-6-yl)-2-(4-methylpiperazin-1-yl)isonicotinamide]: the 50% effective concentration (EC50) in [1] is more than 10 µM; in assay [2], more than 10 µM; with IL-6, more than 10 µM; on DYRK1A kinase, 0.096 µM; in assay [3] it was more than 10 µM; in assay [4], more than 10 µM. For the same compound, the EC50 in assay [6] is 2 µM; at GSK3β kinase, more than 10 µM. In addition, the inhibition at 10 µM in assay [1] is 8.3%; in [2] it was 14.9%; in the assay with IL-6, 4.7%; in [4] it was 14.4%.
On to `Cn1cc(-c2cnc3cnc(NC(=O)c4ccnc(N5CCNCC5)c4)cc3c2)nn1` [Compound 3105, N-(3-(1-Methyl-1H-1,2,3-triazol-4-yl)-1,7-naphthyridin-6-yl)-2-(piperazin-1-yl)isonicotinamide], for which the EC50 in [1] is more than 10 µM; in assay [2], 4.16 µM; in the assay on IL-6 it was more than 10 µM; on DYRK1A kinase, 0.147 µM; in assay [3], more than 10 µM; in [4] it was 9.75 µM. For the same compound, the EC50 in [6] was 7.8 µM; at GSK3β kinase, more than 10 µM. Also, the figures for the inhibition at 10 µM (in assay [1]; in the assay on IL-6) were 21.8% and 8%, respectively.
